Assay [1] deals with Mitogen-activated protein kinase 9 (Homo sapiens, UniProt P45984). Nature of the assay: Binding affinity to recombinant full-length N-terminal His-FLAG-tagged MAPK9 (unknown origin) expressed in baculovirus infected Sf9 insect cells incubated for 1 hr by TR-FRET assay. (In TR-FRET formats the signal depends on donor and acceptor labels being close together.)
In assay [2] the target is Homeodomain-interacting protein kinase 2 (Homo sapiens, UniProt Q9H2X6). Nature of the assay: Binding affinity to recombinant full-length N-terminal His-FLAG-tagged HIPK2 (unknown origin) expressed in baculovirus infected Sf9 insect cells incubated for 1 hr by TR-FRET assay.
For a further assay, the target named is Ephrin type-A receptor 3 (Homo sapiens, UniProt P29320). Nature of the assay: Binding affinity to recombinant N-terminal His-FLAG-GST-tagged EPHA3 (unknown origin) (579 to 983 residues) expressed in baculovirus infected Sf9 insect cells incubated for 1 hr by TR-FRET assay.
In assay [3] the target is Tyrosine-protein kinase ABL1 (Homo sapiens, UniProt P00519). Nature of the assay: Binding affinity to recombinant human full-length N-terminal His-tagged ABL1 expressed in baculovirus expression system incubated for 1 hr by TR-FRET assay.
The target in assay [4] is Tyrosine-protein kinase JAK2 (Homo sapiens, UniProt O60674). Nature of the assay: Binding affinity to recombinant N-terminal His-FLAG-GST-tagged JAK2 (unknown origin) (826 to 1132 residues) expressed in baculovirus infected Sf9 insect cells incubated for 1 hr by TR-FRET assay.
The next assay concerns the target Ephrin type-B receptor 4 (Homo sapiens, UniProt P54760). Nature of the assay: Binding affinity to recombinant N-terminal His-FLAG-GST-tagged EPHB4 (unknown origin) (577 to 987 residues) expressed in baculovirus infected Sf9 insect cells incubated for 1 hr by TR-FRET assay.
A further assay concerns the target Ephrin type-B receptor 2 (Homo sapiens, UniProt P29323). Nature of the assay: Binding affinity to recombinant N-terminal His-FLAG-GST-tagged EPHB2 (unknown origin) (581 to 986 residues) expressed in baculovirus infected Sf9 insect cells incubated for 1 hr by TR-FRET assay.
Assay [5] addresses Serine/threonine-protein kinase Chk1 (Homo sapiens, UniProt O14757). Nature of the assay: Binding affinity to recombinant human full-length N-terminal His-tagged CHEK1 expressed in baculovirus expression system using CHKtide as substrate incubated for 1 hr by TR-FRET assay.
The target in another assay is Ephrin type-B receptor 6 (Homo sapiens, UniProt O15197). Description: Binding affinity to recombinant N-terminal His-FLAG-GST-tagged EPHB6 (unknown origin) (683 to 1130 residues) expressed in baculovirus infected Sf9 insect cells incubated for 1 hr by TR-FRET assay.
Ephrin type-B receptor 6, sequence (O15197 whole entry, the tested form may be a part): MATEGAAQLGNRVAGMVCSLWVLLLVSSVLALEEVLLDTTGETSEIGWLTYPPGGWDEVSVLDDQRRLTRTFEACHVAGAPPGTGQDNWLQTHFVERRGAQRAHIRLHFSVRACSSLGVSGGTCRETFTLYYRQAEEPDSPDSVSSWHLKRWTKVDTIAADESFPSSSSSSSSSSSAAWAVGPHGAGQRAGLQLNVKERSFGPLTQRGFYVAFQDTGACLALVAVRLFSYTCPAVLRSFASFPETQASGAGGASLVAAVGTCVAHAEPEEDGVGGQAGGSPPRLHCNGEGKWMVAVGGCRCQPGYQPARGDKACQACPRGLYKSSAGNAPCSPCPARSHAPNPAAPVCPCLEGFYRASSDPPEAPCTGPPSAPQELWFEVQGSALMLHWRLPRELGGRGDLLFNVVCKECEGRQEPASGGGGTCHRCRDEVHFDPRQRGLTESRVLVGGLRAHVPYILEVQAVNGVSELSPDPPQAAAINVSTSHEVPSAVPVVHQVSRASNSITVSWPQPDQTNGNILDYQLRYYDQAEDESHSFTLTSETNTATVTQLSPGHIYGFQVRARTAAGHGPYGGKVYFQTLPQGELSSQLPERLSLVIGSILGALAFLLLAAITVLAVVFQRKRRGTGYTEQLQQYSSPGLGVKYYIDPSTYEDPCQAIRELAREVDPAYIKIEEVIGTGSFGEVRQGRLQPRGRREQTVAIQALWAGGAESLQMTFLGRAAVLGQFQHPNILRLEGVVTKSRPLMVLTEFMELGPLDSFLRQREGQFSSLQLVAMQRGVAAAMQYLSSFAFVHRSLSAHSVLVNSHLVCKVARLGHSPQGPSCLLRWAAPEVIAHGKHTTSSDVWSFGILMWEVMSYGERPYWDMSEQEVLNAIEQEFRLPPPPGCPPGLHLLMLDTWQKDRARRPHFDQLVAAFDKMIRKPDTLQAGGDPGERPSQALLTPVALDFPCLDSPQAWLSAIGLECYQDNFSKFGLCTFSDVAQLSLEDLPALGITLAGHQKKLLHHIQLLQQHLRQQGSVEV
Assay [6] has as its target Tyrosine-protein kinase TXK (Homo sapiens, UniProt P42681). Nature of the assay: Binding affinity to recombinant human N-terminal GST-tagged TXK (260 to 527 residues) expressed in baculovirus expression system using srctide as substrate incubated for 1 hr by TR-FRET assay.
In assay [7] the target is Serine/threonine-protein kinase MRCK gamma (Homo sapiens, UniProt Q6DT37). Description: Binding affinity to recombinant full-length N-terminal His-FLAG-GST-tagged DMPK2 (unknown origin) expressed in baculovirus infected Sf9 insect cells incubated for 1 hr by TR-FRET assay.
Assay [8] addresses Proto-oncogene tyrosine-protein kinase ROS (Homo sapiens, UniProt P08922). Description: Binding affinity to recombinant N-terminal His-FLAG-tagged ROS1 (unknown origin) (1883 to 2347 residues) expressed in baculovirus infected Sf9 insect cells incubated for 1 hr by TR-FRET assay.
In assay [9] the target is Tyrosine-protein kinase ZAP-70 (Homo sapiens, UniProt P43403). Nature of the assay: Binding affinity to recombinant full-length N-terminal His-FLAG-GST-tagged ZAP70 (unknown origin) expressed in baculovirus infected Sf9 insect cells incubated for 1 hr by TR-FRET assay.
Assay [10] concerns the target Serine/threonine-protein kinase pim-2 (Homo sapiens, UniProt Q9P1W9). Description: Binding affinity to recombinant human full-length N-terminal GST-tagged PIM2 expressed in baculovirus expression system using S6K2 peptide as substrate incubated for 1 hr by TR-FRET assay.
A further assay addresses CDK2/Cyclin A2 (Homo sapiens, UniProt P24941). Description: Binding affinity to recombinant human full-length N-terminal GST-tagged CDK2/cyclin A2 expressed in baculovirus expression system using modified Histone H1 as substrate incubated for 1 hr by TR-FRET assay.
A further assay deals with Ephrin type-A receptor 8 (Homo sapiens, UniProt P29322). Description: Binding affinity to recombinant N-terminal His-FLAG-GST-tagged […] (unknown origin) (571 to 924 residues) expressed in baculovirus infected Sf9 insect cells incubated for 1 hr by TR-FRET assay.
Assay [11] deals with Serine/threonine-protein kinase SIK3 (Homo sapiens, UniProt Q9Y2K2). Nature of the assay: Binding affinity to recombinant N-terminal His-FLAG-GST-tagged SIK3 (unknown origin) (59 to 365 residues) expressed in baculovirus infected Sf9 insect cells incubated for 1 hr by TR-FRET assay.
Serine/threonine-protein kinase SIK3, sequence (Q9Y2K2 whole entry, the tested form may be a part): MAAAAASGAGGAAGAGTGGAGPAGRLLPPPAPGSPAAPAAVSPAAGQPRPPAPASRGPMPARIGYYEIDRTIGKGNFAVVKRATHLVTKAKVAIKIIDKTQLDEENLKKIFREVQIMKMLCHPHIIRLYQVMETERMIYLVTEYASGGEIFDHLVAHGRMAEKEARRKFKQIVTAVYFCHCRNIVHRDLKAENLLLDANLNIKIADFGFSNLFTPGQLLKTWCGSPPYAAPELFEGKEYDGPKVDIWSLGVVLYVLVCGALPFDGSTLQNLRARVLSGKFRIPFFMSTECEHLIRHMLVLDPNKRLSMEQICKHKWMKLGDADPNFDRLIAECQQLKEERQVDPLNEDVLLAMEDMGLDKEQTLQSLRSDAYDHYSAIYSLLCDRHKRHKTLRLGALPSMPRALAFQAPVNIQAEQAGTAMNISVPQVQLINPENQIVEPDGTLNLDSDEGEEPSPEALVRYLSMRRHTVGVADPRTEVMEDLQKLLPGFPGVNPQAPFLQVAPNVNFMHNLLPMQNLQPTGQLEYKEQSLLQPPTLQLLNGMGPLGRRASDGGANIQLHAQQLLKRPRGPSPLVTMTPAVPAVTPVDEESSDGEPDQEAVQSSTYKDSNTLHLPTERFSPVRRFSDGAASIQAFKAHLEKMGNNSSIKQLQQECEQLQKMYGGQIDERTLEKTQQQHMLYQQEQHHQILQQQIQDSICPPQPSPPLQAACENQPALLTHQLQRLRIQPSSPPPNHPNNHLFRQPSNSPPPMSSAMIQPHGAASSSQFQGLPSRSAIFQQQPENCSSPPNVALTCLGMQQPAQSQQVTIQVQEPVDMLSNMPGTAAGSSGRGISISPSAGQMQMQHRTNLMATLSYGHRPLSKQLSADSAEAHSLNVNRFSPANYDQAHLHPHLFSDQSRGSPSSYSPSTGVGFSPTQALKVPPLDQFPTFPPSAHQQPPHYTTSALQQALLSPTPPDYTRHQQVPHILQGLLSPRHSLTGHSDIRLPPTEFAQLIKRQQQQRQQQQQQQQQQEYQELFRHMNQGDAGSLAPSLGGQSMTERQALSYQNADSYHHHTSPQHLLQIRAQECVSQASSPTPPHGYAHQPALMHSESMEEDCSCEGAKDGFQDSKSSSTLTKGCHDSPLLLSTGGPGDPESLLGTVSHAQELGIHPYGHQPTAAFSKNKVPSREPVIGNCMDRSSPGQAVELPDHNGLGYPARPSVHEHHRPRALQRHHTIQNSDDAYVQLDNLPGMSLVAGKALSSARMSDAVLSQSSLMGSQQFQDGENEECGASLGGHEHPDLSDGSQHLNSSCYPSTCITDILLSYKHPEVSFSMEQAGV
In assay [12] the target is Cyclin-dependent kinase 5/CDK5 activator 1 (Homo sapiens, UniProt Q00535). Description: Binding affinity to recombinant human full-length N-terminal GST-tagged CDK5 (1 to 292 residues)/N-terminal His6-tagged p25 (99 to 307 residues) expressed in baculovirus expression system using modified histone H1 as substrate incubated for 1 hr by TR-FRET assay.
For assay [13], the target named is Serine/threonine-protein kinase Chk2 (Homo sapiens, UniProt O96017). Nature of the assay: Binding affinity to recombinant full-length N-terminal His-FLAG-GST-tagged CHEK2 (unknown origin) expressed in baculovirus infected Sf9 insect cells incubated for 1 hr by TR-FRET assay.
A further assay concerns the target Ephrin type-A receptor 4 (Homo sapiens, UniProt P54764). Description: Binding affinity to recombinant N-terminal His-FLAG-GST-tagged EPHA4 (unknown origin) (586 to 986 residues) expressed in baculovirus infected Sf9 insect cells incubated for 1 hr by TR-FRET assay.
In assay [14] the target is Dual specificity mitogen-activated protein kinase kinase 7 (Homo sapiens, UniProt O14733). Description: Binding affinity to recombinant human full-length N-terminal GST-tagged MAP2K7 (1 to 419 residues) expressed in baculovirus expression system using JNK2 as substrate incubated for 1 hr by TR-FRET assay.
Assay [15] addresses cAMP-dependent protein kinase catalytic subunit PRKX (Homo sapiens, UniProt P51817). Description: Binding affinity to recombinant full-length N-terminal His-FLAG-GST-tagged PRKX (unknown origin) expressed in baculovirus infected Sf9 insect cells incubated for 1 hr by TR-FRET assay.
For assay [16], the target named is Serine/threonine-protein kinase pim-3 (Homo sapiens, UniProt Q86V86). Description: Binding affinity to recombinant human full-length N-terminal GST-tagged PIM3 expressed in baculovirus expression system using S6K2 peptide as substrate incubated for 1 hr by TR-FRET assay.

As a reminder, the Kd is the concentration at which binding is half-saturated.

Ephrin type-B receptor 2, sequence (P29323 whole entry, the tested form may be a part): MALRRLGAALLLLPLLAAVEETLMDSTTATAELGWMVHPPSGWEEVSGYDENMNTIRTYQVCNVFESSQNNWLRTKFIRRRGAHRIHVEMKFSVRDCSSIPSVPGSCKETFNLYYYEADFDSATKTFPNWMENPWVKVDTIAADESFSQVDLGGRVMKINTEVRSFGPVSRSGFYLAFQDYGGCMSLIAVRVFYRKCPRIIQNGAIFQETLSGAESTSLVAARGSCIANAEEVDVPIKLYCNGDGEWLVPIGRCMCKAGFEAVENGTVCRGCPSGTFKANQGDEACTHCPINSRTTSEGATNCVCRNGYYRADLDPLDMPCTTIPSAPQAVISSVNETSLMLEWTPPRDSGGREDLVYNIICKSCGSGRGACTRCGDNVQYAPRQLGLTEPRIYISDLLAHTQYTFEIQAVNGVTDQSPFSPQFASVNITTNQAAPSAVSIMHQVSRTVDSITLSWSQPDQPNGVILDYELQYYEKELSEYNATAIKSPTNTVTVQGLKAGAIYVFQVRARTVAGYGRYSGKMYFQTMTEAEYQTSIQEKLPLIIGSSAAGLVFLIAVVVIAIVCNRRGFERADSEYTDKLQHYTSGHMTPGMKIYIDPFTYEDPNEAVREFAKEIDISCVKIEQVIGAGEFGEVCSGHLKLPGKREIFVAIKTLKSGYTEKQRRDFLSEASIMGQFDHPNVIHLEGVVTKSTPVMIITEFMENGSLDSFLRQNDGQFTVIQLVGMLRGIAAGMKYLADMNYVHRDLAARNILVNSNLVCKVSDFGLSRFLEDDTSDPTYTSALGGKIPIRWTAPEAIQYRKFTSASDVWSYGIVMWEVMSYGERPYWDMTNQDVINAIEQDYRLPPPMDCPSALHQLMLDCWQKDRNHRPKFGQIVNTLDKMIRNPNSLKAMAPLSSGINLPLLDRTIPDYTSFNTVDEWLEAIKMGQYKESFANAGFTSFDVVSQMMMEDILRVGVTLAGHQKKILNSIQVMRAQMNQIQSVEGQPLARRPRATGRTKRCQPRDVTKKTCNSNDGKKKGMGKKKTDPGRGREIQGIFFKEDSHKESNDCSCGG
Mitogen-activated protein kinase 9, sequence (P45984 whole entry): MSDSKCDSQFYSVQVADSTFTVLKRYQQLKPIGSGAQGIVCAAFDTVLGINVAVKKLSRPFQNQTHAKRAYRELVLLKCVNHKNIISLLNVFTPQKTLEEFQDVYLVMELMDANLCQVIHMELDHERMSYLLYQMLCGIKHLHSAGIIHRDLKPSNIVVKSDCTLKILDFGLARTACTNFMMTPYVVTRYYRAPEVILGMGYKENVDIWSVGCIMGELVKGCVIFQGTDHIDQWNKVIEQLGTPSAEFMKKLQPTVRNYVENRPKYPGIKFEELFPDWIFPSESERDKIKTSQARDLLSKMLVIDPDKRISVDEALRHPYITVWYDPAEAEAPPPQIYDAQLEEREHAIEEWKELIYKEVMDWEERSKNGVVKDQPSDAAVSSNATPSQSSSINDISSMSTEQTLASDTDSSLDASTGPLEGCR
Ephrin type-B receptor 4, sequence (P54760 whole entry, the tested form may be a part): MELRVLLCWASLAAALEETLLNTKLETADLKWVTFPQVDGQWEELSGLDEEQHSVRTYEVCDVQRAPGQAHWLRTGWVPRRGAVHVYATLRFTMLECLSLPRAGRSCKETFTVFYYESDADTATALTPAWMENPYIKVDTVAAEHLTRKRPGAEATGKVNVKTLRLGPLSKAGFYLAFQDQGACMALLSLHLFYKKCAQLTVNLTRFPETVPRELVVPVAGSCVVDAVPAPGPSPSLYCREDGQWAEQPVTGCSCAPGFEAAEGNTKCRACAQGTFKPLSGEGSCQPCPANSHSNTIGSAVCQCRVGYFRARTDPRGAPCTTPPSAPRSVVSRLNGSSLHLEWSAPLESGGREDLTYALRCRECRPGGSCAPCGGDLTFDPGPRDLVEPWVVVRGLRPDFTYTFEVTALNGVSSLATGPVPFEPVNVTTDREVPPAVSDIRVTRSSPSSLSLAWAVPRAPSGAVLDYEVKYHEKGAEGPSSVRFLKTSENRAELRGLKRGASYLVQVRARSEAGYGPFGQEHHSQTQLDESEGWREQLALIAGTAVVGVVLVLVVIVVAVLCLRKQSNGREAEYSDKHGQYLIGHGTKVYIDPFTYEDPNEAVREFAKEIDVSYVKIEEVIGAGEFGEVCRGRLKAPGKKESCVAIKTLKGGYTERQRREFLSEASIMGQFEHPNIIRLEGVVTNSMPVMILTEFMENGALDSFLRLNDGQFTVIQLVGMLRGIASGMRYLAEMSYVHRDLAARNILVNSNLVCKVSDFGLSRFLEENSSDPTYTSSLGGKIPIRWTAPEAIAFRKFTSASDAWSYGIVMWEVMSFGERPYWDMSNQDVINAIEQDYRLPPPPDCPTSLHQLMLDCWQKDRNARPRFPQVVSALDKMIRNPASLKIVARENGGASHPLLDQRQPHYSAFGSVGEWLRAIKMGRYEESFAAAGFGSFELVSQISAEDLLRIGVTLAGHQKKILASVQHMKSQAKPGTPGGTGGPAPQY

On to `CO[C@@H]1[C@H](N(C)CCOCCOCCOCCNC(=O)CCC2=[N+]3C(=Cc4c(C)cc(C)n4[B-]3(F)F)C=C2)C[C@H]2O[C@]1(C)n1c3ccccc3c3c4c(c5c6ccccc6n2c5c31)C(=O)NC4`, for which the dissociation constant Kd in [1] is 745 nM; in assay [2] it was 559 nM.

Regarding `CO[C@@H]1[C@H](NCCOCCOCCOCCNC(=O)CCC2=[N+]3C(=Cc4c(C)cc(C)n4[B-]3(F)F)C=C2)C[C@H]2O[C@]1(C)n1c3ccccc3c3c4c(c5c6ccccc6n2c5c31)C(=O)NC4`, the Kd on Ephrin type-A receptor 3 worked out at 747 nM; in assay [3], 918 nM; in assay [4] it was 14 nM; at Ephrin type-B receptor 4, 1800 nM; at Ephrin type-B receptor 2, 985 nM; in [5], 20 nM. The Kd on Ephrin type-B receptor 6 amounted to 570 nM; in assay [6] it was 1010 nM; in assay [7], 7 nM; in [8] it was 238 nM; in [9] it was 109 nM; in [10], 15 nM. Further, the Kd at CDK2/Cyclin A2 was 94 nM; on Ephrin type-A receptor 8 it was 1560 nM; in [11], 10 nM; in assay [12], 87 nM; in assay [13] it was 147 nM; on Ephrin type-A receptor 4 it was 1100 nM. The Kd was found to be 293 nM in assay [14], 43 nM in assay [15] and 4 nM in assay [16].

For the origin of these results see ChEMBL document CHEMBL4321812, “Structure-based rational design of staurosporine-based fluorescent probe with broad-ranging kinase affinity for kinase panel application” (Bioorg Med Chem Lett, 2019).
